Laboratory results published in patent publication US11104648B2, “Pyrazole derivative” (Zhejiang Research Institute of Chemical Industry Co., Ltd., priority 2018, dated 2021).
Where two headings read alike, the source gives them in different places.

Key:
Type in all cases: in vivo
[1] = test system: Tetranychus cinnabarinus Nymphs; assay: Activity assay of Tetranychus cinnabarinus nymphs (spray on broad bean leaves)
Outline: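 Mortality, judged as no response to gentle touch, was scored 48 h after spraying Tetranychus cinnabarinus nymphs on broad bean leaves (eggs from females removed after 24 h). Test solutions: DMF-dissolved compound, ≤10% DMF, in 1‰ Tween 80; 26±2° C., 70%–80% RH, 16 h light; triplicate, blank control.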

[2] = test system: Eggs of Tetranychus Cinnabarinus; assay: Activity assay of eggs of Tetranychus cinnabarinus (spray method, ovicidal); details: Tetranychus cinnabarinus; for pest or weed control at 2 µg/mL: concentration 2 mg/L
Outline: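 Ovicidal spray test: compound dissolved in DMF, diluted with 1‰ Tween 80 (DMF ≤10%), sprayed on eggs laid during 24 h by females on broad bean leaves. Culture at 26±2° C, 70–80% RH, 16 h photoperiod; non-hatched eggs scored as dead when blank control hatched; three repeats.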

[3] = test system: adult Tetranychus cinnabarinus; assay: Activity assay of adult Tetranychus cinnabarinus (whole-plant spray on bean seedlings); details: 48 h; for pest or weed control at 1.25 µg/mL: concentration 1.25 mg/L
Outline: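 Whole plants sprayed after adult mite inoculation and initial census, using compound dissolved in DMF and made up with 1‰ Tween 80 water (DMF not above 10%). Mortality derived from survivor counts at 48 h after treatment. Each treatment run in triplicate.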

[4] = 48 h, concentration 2 mg/L, read-out: nymph-killing activity
[5] = 48 h, concentration 2.5 mg/L, read-out: nymph-killing activity
[6] = spray, read-out: ovicidal activity
[7] = concentration 5 mg/L, spray, non-incubated eggs counted as dead, read-out: ovicidal activity
[8] = read-out: adult mite-killing activity
[9] = concentration 2.5 mg/L, read-out: adult mite-killing activity
[10] = 48 h, read-out: nymph-killing activity
[11] = concentration 2.5 mg/L, 48 h, read-out: nymph-killing activity

| SMILES | pest or weed control at 2.5 µg/mL [1, 5] [%] | pest or weed control at 5 µg/mL [2, 7] [%] | pest or weed control at 2.5 µg/mL [3, 9] [%] | other results |
| --- | --- | --- | --- | --- |
| CCC(=O)OCO/C(=C(/C#N)c1ccc(C(C)(C)C)cc1)c1c(Cl)c(C)nn1CC [Compound 302] | ≥ 95 | ≥ 90 | ≥ 90 | pest or weed control at 2 µg/mL [1, 4]: ≥ 90%; pest or weed control at 0.5 µg/mL ([1]; 48 h, nymphs, concentration 0.5 mg/L, parallel determination, read-out: Death rate (%)): 96%; pest or weed control at 2 µg/mL [2, 6]: ≥ 90%; pest or weed control at 2 µg/mL ([2]; eggs, parallel determination, read-out: Death rate (%)): 97%; pest or weed control at 1.25 µg/mL ([3]; adult mites, parallel determination, read-out: Death rate (%)): 96%; pest or weed control at 1.25 µg/mL [3, 8]: ≥ 90% |
| CCCC(=O)OCO/C(=C(/C#N)c1ccc(C(C)(C)C)cc1)c1c(Cl)c(C)nn1CC [Compound 303] | ≥ 95 | ≥ 90 | ≥ 90 | – |
| CCn1nc(C)c(Cl)c1/C(OCOC(=O)C(C)C)=C(\C#N)c1ccc(C(C)(C)C)cc1 [Compound 304] | ≥ 95 | ≥ 90 | ≥ 90 | – |
| CCn1nc(C)c(Cl)c1/C(OCOC(=O)C(C)(C)C)=C(\C#N)c1ccc(C(C)(C)C)cc1 [Compound 305] | ≥ 95 | ≥ 90 | ≥ 90 | pest or weed control at 2 µg/mL [1, 4]: ≥ 90%; pest or weed control at 2 µg/mL [2, 6]: ≥ 90%; pest or weed control at 1.25 µg/mL [3, 8]: ≥ 90% |
| CCCCC(=O)OCO/C(=C(/C#N)c1ccc(C(C)(C)C)cc1)c1c(Cl)c(C)nn1CC [Compound 306] | ≥ 95 | ≥ 90 | ≥ 90 | – |
| CCn1nc(C)c(Cl)c1/C(OCOC(=O)CC(C)C)=C(\C#N)c1ccc(C(C)(C)C)cc1 [Compound 307] | ≥ 95 | ≥ 90 | ≥ 90 | – |
| CCn1nc(C)c(Cl)c1/C(OCOC(=O)COC)=C(\C#N)c1ccc(C(C)(C)C)cc1 [Compound 308] | ≥ 95 | ≥ 90 | ≥ 90 | – |
| CCn1nc(C)c(Cl)c1/C(OCOC(=O)C1CC1)=C(\C#N)c1ccc(C(C)(C)C)cc1 [Compound 309] | ≥ 95 | ≥ 90 | ≥ 90 | pest or weed control at 2 µg/mL [1, 4]: ≥ 90%; pest or weed control at 2 µg/mL [2, 6]: ≥ 90%; pest or weed control at 1.25 µg/mL [3, 8]: ≥ 90% |
| CCn1nc(C)c(Cl)c1/C(OCOC(=O)CSC)=C(\C#N)c1ccc(C(C)(C)C)cc1 [Compound 310] | ≥ 95 | ≥ 90 | ≥ 90 | – |
| CCn1nc(C)c(Cl)c1/C(OCOC(=O)C1CCCCC1)=C(\C#N)c1ccc(C(C)(C)C)cc1 [Compound 311] | ≥ 95 | ≥ 90 | ≥ 90 | – |
| CCn1nc(C)c(Cl)c1/C(OCOC(=O)CF)=C(\C#N)c1ccc(C(C)(C)C)cc1 [Compound 312] | – | – | – | pest or weed control at 2.5 µg/mL [1, 10]: ≥ 95%; pest or weed control at 5 µg/mL ([2]; read-out: ovicidal activity): ≥ 90%; pest or weed control at 2.5 µg/mL [3, 8]: ≥ 90% |
| CCn1nc(C)c(Cl)c1/C(OCOC(=O)C(F)(F)F)=C(\C#N)c1ccc(C(C)(C)C)cc1 [Compound 313] | ≥ 95 | ≥ 90 | ≥ 90 | – |
| CCn1nc(C)c(Cl)c1/C(OCOC(=O)c1ccccc1)=C(\C#N)c1ccc(C(C)(C)C)cc1 [Compound 314] | ≥ 95 | ≥ 90 | ≥ 90 | – |
| CCn1nc(C)c(Cl)c1/C(OCOC(=O)Cc1ccccc1)=C(\C#N)c1ccc(C(C)(C)C)cc1 [Compound 315] | – | ≥ 90 | ≥ 90 | pest or weed control at 2.5 µg/mL [1, 11]: ≥ 95% |
| CCn1nc(C)c(Cl)c1/C(OCOC(=O)C(C)(C)CC)=C(\C#N)c1ccc(C(C)(C)C)cc1 [Compound 316] | ≥ 95 | ≥ 90 | ≥ 90 | – |
| C=CC(=O)OCO/C(=C(/C#N)c1ccc(C(C)(C)C)cc1)c1c(Cl)c(C)nn1CC [Compound 317] | ≥ 95 | ≥ 90 | ≥ 90 | – |
| CCn1nc(C)c(Cl)c1/C(OC(C)OC(C)=O)=C(\C#N)c1ccc(C(C)(C)C)cc1 (stereo not drawn) [Compound 326] | ≥ 95 | ≥ 90 | ≥ 90 | pest or weed control at 2 µg/mL [1, 4]: ≥ 90%; pest or weed control at 2 µg/mL [2, 6]: ≥ 90%; pest or weed control at 1.25 µg/mL [3, 8]: ≥ 90% |
| CCC(=O)OC(C)O/C(=C(/C#N)c1ccc(C(C)(C)C)cc1)c1c(Cl)c(C)nn1CC (stereo not drawn) [Compound 327] | ≥ 95 | ≥ 90 | ≥ 90 | pest or weed control at 2 µg/mL [1, 4]: ≥ 90%; pest or weed control at 2 µg/mL [2, 6]: ≥ 90%; pest or weed control at 1.25 µg/mL [3, 8]: ≥ 90% |
| CCCC(=O)OC(C)O/C(=C(/C#N)c1ccc(C(C)(C)C)cc1)c1c(Cl)c(C)nn1CC (stereo not drawn) [Compound 328] | ≥ 95 | ≥ 90 | ≥ 90 | – |

| SMILES | pest or weed control at 2.5 µg/mL [1, 5] [%] | pest or weed control at 5 µg/mL [2, 7] [%] | pest or weed control at 2.5 µg/mL [3, 9] [%] | other results |
| --- | --- | --- | --- | --- |
| CCn1nc(C)c(Cl)c1/C(OC(C)OC(=O)C(C)C)=C(\C#N)c1ccc(C(C)(C)C)cc1 (stereo not drawn) [Compound 329] | ≥ 95 | ≥ 90 | ≥ 90 | – |
| CCn1nc(C)c(Cl)c1/C(OC(C)OC(=O)C(C)(C)C)=C(\C#N)c1ccc(C(C)(C)C)cc1 (stereo not drawn) [Compound 330] | ≥ 95 | ≥ 90 | ≥ 90 | – |
| CCCCC(=O)OC(C)O/C(=C(/C#N)c1ccc(C(C)(C)C)cc1)c1c(Cl)c(C)nn1CC (stereo not drawn) [Compound 331] | ≥ 95 | ≥ 90 | ≥ 90 | – |
| CCn1nc(C)c(Cl)c1/C(OC(C)OC(=O)CC(C)C)=C(\C#N)c1ccc(C(C)(C)C)cc1 (stereo not drawn) [Compound 332] | ≥ 95 | ≥ 90 | ≥ 90 | – |
| CCn1nc(C)c(Cl)c1/C(OC(C)OC(=O)COC)=C(\C#N)c1ccc(C(C)(C)C)cc1 (stereo not drawn) [Compound 333] | ≥ 95 | ≥ 90 | ≥ 90 | – |
| CCn1nc(C)c(Cl)c1/C(OC(C)OC(=O)C1CC1)=C(\C#N)c1ccc(C(C)(C)C)cc1 (stereo not drawn) [Compound 334] | ≥ 95 | ≥ 90 | ≥ 90 | – |
| CCn1nc(C)c(Cl)c1/C(OC(C)OC(=O)CSC)=C(\C#N)c1ccc(C(C)(C)C)cc1 (stereo not drawn) [Compound 335] | ≥ 95 | ≥ 90 | ≥ 90 | – |
| CCn1nc(C)c(Cl)c1/C(OC(C)OC(=O)C1CCCCC1)=C(\C#N)c1ccc(C(C)(C)C)cc1 (stereo not drawn) [Compound 336] | ≥ 95 | ≥ 90 | ≥ 90 | – |
| CCn1nc(C)c(Cl)c1/C(OC(C)OC(=O)CF)=C(\C#N)c1ccc(C(C)(C)C)cc1 (stereo not drawn) [Compound 337] | – | – | – | pest or weed control at 2.5 µg/mL [1, 10]: ≥ 95%; pest or weed control at 5 µg/mL ([2]; read-out: ovicidal activity): ≥ 90%; pest or weed control at 2.5 µg/mL [3, 8]: ≥ 90% |
| CCn1nc(C)c(Cl)c1/C(OC(C)OC(=O)C(F)(F)F)=C(\C#N)c1ccc(C(C)(C)C)cc1 (stereo not drawn) [Compound 338] | ≥ 95 | ≥ 90 | ≥ 90 | – |
| CCn1nc(C)c(Cl)c1/C(OC(C)OC(=O)c1ccccc1)=C(\C#N)c1ccc(C(C)(C)C)cc1 (stereo not drawn) [Compound 339] | ≥ 95 | ≥ 90 | ≥ 90 | – |
| CCn1nc(C)c(Cl)c1/C(OC(C)OC(=O)Cc1ccccc1)=C(\C#N)c1ccc(C(C)(C)C)cc1 (stereo not drawn) [Compound 340] | – | ≥ 90 | ≥ 90 | pest or weed control at 2.5 µg/mL [1, 11]: ≥ 95% |
| CCn1nc(C)c(Cl)c1/C(OC(C)OC(=O)C(C)(C)CC)=C(\C#N)c1ccc(C(C)(C)C)cc1 (stereo not drawn) [Compound 341] | ≥ 95 | ≥ 90 | ≥ 90 | – |
| C=CC(=O)OC(C)O/C(=C(/C#N)c1ccc(C(C)(C)C)cc1)c1c(Cl)c(C)nn1CC (stereo not drawn) [Compound 342] | ≥ 95 | ≥ 90 | ≥ 90 | – |
| CCn1nc(C)c(C)c1/C(OCOC(C)=O)=C(\C#N)c1ccc(C(C)(C)C)cc1 [Compound 376] | ≥ 95 | ≥ 90 | ≥ 90 | – |
| CCC(=O)OCO/C(=C(/C#N)c1ccc(C(C)(C)C)cc1)c1c(C)c(C)nn1CC [Compound 377] | ≥ 95 | ≥ 90 | ≥ 90 | – |
| CCCC(=O)OCO/C(=C(/C#N)c1ccc(C(C)(C)C)cc1)c1c(C)c(C)nn1CC [Compound 378] | ≥ 95 | ≥ 90 | ≥ 90 | – |
| CCn1nc(C)c(C)c1/C(OCOC(=O)C(C)C)=C(\C#N)c1ccc(C(C)(C)C)cc1 [Compound 379] | ≥ 95 | ≥ 90 | ≥ 90 | – |
